Source: patent publication US8247211B2, “Glycopeptide antibiotics” (American Cyanamid Company, priority 2001, dated 2012)
Values after ≈ are worked out from the molar mass of the structure shown. Values joined by “and” are separate entries in the source; they are usually repeats but may differ in a detail not shown here. Equal entries are not always repeated.

Experiments:
Staphylococcus aureus = assay: Zone of inhibition, assay plate Staphylococcus aureus; type: cell-based; conditions: 25 μl of extract per 5 mm well, Nutrient Agar pH 6.8, incubated overnight at 37° C.
Experimental: Inoculate 10 mL of Tryptic Soy Broth with a loopful of slant culture, Staphylococcus aureus, and place in a stationary rack at 37° C. After 16-18 hour incubation, the Optical Density (OD) of the culture is read @ A600 nm, using a 1:10 dilution. OD should be between 0.1-0.3, and if not adjust with Tryptic Soy Broth. A 40 mL sample of Nutrient Agar, pH 6.8 is inoculated with 90 μl of S. aureus culture and poured into a sterile petri dish. When the agar has solidified, wells (5 mm) are plated using an automated welling device. Wells are inoculated with 25 μl of extract and incubated overnight at 37° C. Zones of inhibition are measured and recorded the following morning.

[1] = test system: Enterococcus faecalis (GC 6189), vancomycin resistant strain; assay: Acute lethal infection in mice (ED50); type: in vivo; conditions: female CD-1 mice, intraperitoneal challenge, intravenous dose 30 min. after infection, 7 day survival ratios
Summary of the method: (§1)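 Median effective dose is calculated from 7-day survival ratios pooled across three separate tests. Mice (female CD-1) receive an intraperitoneal bacterial challenge in broth or hog gastric mucin, then intravenous drug 30 min later, five animals per dose level.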

[2] = test system: Staphylococcus aureus-SMITH (GC 4543); assay: Acute lethal infection in mice (ED50); type: in vivo; conditions: female CD-1 mice, intraperitoneal challenge, intravenous dose 30 min. after infection, 7 day survival ratios
Summary of the method: as §1

[3] = type: in vivo; conditions: mice, 20 mg/kg intravenously daily for 9 days, serum on day 10
Experimental: 20-day-old CD-1 mice were divided into a vehicle control group (5 mice) and a treatment group (5 mice). Samples of glycopeptide antibiotics were administered at 20 mg/kg intravenously daily for 9 days. Animals were necropsied on day 10 Sera were analyzed for BUN (blood urea nitrogen), creatinine, AST (aspartic aminotransferase), and ALT (alanine aminotransferase) by routine, standard, automated methods using an Hitachi 747 chemistry analyzer.

[4] = Anatomic pathology (heart and kidney histopathology) in mice; type: in vivo, CD-1 mice; conditions: 20 mg/kg intravenously daily for 9 days, microscopic histopathology on day 10
Summary of the method: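 Juvenile CD-1 mice (20 days old; 5 vehicle, 5 treated) received glycopeptide antibiotic 20 mg/kg i.v. daily for 9 days. Necropsied tissues formalin-fixed, paraffin-embedded, H&E stained and examined microscopically; findings graded slight to severe versus controls.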

Streptococcus sp. = assay: In vitro antibacterial evaluation: minimum inhibitory concentration (MIC), broth dilution method; type: cell-based; conditions: broth dilution, 5×10^5 CFU/mL, 18 hours at 35° C.
Summary of the method: (§2)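 MIC by broth dilution in Mueller-Hinton II medium following NCCLS M7-A2. Inoculum was 5×10^5 CFU/mL and antibiotic was tested over 64-0.06 μg/mL. Gram-positive panel included clinical isolates resistant to methicillin, penicillin and/or vancomycin.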

Escherichia coli = assay: as above; type: cell-based; conditions: 5×10^5 CFU/mL, 18 hours at 35° C.
Summary of the method: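 Following NCCLS approved standard M7-A2, compounds are serially diluted from 64 to 0.06 μg/mL in Muller-Hinton II […] and inoculated at 5×10^5 CFU/mL; the MIC is the minimum concentration at which growth is inhibited.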

Staphylococcus sp. = assay: as above; type: cell-based; conditions: for MIC Staphylococcus aureus-SMITH (GC 4543): strain GC 4543; for MIC Staphylococcus haemolyticus (GC 4546): strain GC 4546; for MIC Coagulase Negative Staphylococcus (GC 4547): strain GC 4547; for MIC Coagulase Negative Staphylococcus (GC 4548): strain GC 4548; for MIC Coagulase Negative Staphylococcus (GC 4549): strain GC 4549; for MIC Coagulase Negative Staphylococcus (GC 4551): strain GC 4551; for MIC Coagulase Negative Staphylococcus (GC 6257): strain GC 6257
Summary of the method: as §2

Enterococcus sp. = assay: as above; type: cell-based; conditions: broth dilution, 5×10^5 CFU/mL, 18 hours at 35° C.
Summary of the method: as §2

[5] = broth dilution, 18 hours at 35° C.

With `CCCCCCC(=O)OC1C(OC2C(CO)OC(Oc3ccc(CC4NC(=O)C(C(C)c5ccccc5)NC(=O)CNC(=O)C(CO)NC(=O)C(C(O)C5CNC(=N)N5C5OC(CO)C(O)C(O)C5O)NC(=O)C(C(O)C5CNC(=N)N5)NC4=O)cc3)C(O)C2O)OC(CO)C(O)C1O` (stereo not drawn) [Example 274a, Cyclo[glycyl-β-methylphenylalanyl-O-[4-O-(2-O-heptanoyl-hexopyranosyl)-hexopyranosyl]tyrosyl-3-(2-iminoimidazolidin-4-yl)seryl-3-(3-hexopyranosyl-2-iminoimidazolidin-4-yl)serylseryl]] the “Zone of Inhibition vs. S. aureus” value (Staphylococcus aureus) was 9 mm.
With `CCCC(=O)OC1C(O)C(CO)OC(OC2C(CO)OC(Oc3ccc(CC4NC(=O)C(C(C)c5ccccc5)NC(=O)CNC(=O)C(CO)NC(=O)C(C(O)C5CNC(=N)N5C5OC(CO)C(O)C(O)C5O)NC(=O)C(C(O)C5CNC(=N)N5)NC4=O)cc3)C(O)C2O)C1O` (stereo not drawn) [Example 272b, Cyclo[glycyl-β-methylphenylalanyl-O-[4-O-(3-O-butanoyl-hexopyranosyl)-hexopyranosyl]tyrosyl-3-(2-iminoimidazolidin-4-yl)seryl-3-(3-hexopyranosyl-2-iminoimidazolidin-4-yl)serylseryl]] the “Zone of Inhibition vs. S. aureus” value (Staphylococcus aureus) was 8 mm.
In the case of `CC(C)CCC(=O)OC1C(CO)OC(OC2C(CO)OC(Oc3ccc(CC4NC(=O)C(C(C)c5ccccc5)NC(=O)CNC(=O)C(CO)NC(=O)C(C(O)C5CNC(=N)N5C5OC(CO)C(O)C(O)C5O)NC(=O)C(C(O)C5CNC(=N)N5)NC4=O)cc3)C(O)C2O)C(O)C1O` (stereo not drawn) [Example 270c, Cyclo[glycyl-β-methylphenylalanyl-O-[4-O-[4-O-(4-methylpentanoyl)hexopyranosyl]-hexopyranosyl]tyrosyl-3-(2-iminoimidazolidin-4-yl)seryl-3-(3-hexopyranosyl-2-iminoimidazolidin-4-yl)serylseryl]], the “Zone of Inhibition vs. S. aureus” value (Staphylococcus aureus) is reported as 11 mm.
For `CC(c1ccccc1)C1NC(=O)CNC(=O)C(CO)NC(=O)C(C(O)C2CNC(=N)N2C2OC(CO)C(O)C(O)C2O)NC(=O)C(C(O)C2CNC(=N)N2)NC(=O)C(Cc2ccc(OC3OC(CO)C(OC4OC5COC(Cc6ccccc6)OC5C(O)C4O)C(O)C3O)cc2)NC1=O` (stereo not drawn) [Example 102, Cyclo[glycyl-β-methylphenylalanyl-O-[4-O-(4,6-O-phenethylidenehexopyranosyl)-hexopyranosyl]tyrosyl-3-(2-iminoimidazoliclin-4-yl)seryl-3-(3-hexopyranosyl-2-iminoimidazolidin-4-yl)serylseryl]], the median effective dose (ED50), Enterococcus faecalis (GC 6189) [1] was 1.04 mg/kg, the “median effective dose (ED50), Staphylococcus aureus-SMITH (GC 4543)” value [2] was 0.23-0.43 and the “Clinical Chemistry (Day 10) % of Control, AST” value [3] was “+340%”. The “Clinical Chemistry (Day 10) % of Control, Creatinine” value [3] was “+100%”, the “Anatomical Pathology (Day 10), Heart” value [4] was “+++” and the “Anatomical Pathology (Day 10), Kidney” value [4] was “+++”. For the same molecule, the “MIC Streptococcus pneumoniae (GC 1894)” value (Streptococcus sp.) was less than 0.06 µg/mL, the “MIC Streptococcus pneumonine (ATCC 6301)” value (Streptococcus sp.) was less than 0.06 µg/mL and the “MIC Escherichia coli (GC 4560)” value (Escherichia coli) was 0.5 to 1 µg/mL. The “MIC Staphylococcus aureus (ATCC 29213)” value (Staphylococcus sp.; strain ATCC 29213) was 1 to 2 µg/mL, the “MIC Staphylococcus aureus (GC 1131)” value (Staphylococcus sp.; strain GC 1131) was 2 µg/mL (≈ 1.43 µM) and the “MIC Staphylococcus aureus (GC 3051)” value (Staphylococcus sp.; strain GC 3051) was 1 µg/mL (≈ 0.716 µM). The “MIC Staphylococcus aureus (GC 3053)” value (Staphylococcus sp.; strain GC 3053) was 1 to 2 µg/mL, the “MIC Staphylococcus aureus (GC 4541)” value (Staphylococcus sp.; strain GC 4541) was 1 to 2 µg/mL and the “MIC Staphylococcus aureus (GC 4542)” value (Staphylococcus sp.; strain GC 4542) was 0.5 to 1 µg/mL. For the same molecule, the “MIC Staphylococcus aureus-SMITH (GC 4543)” value (Staphylococcus sp.; 18 hours at 35° C.) was 0.5 to 1 µg/mL, the “MIC Staphylococcus aureus-SMITH (GC 4543)” value (Staphylococcus sp.; [5]) was 0.5 to 1 µg/mL and the “MIC Staphylococcus aureus (GC 4544)” value (Staphylococcus sp.; strain GC 4544) was 1 to 2 µg/mL. The “MIC Staphylococcus aureus (GC 4545)” value (Staphylococcus sp.; strain GC 4545) was 0.5 to 1 µg/mL, the “MIC Staphylococcus haemolyticus (GC 4546)” value (Staphylococcus sp.) was 0.5 to 1 µg/mL and the “MIC Staphylococcus haemolyticus (GC 4546)” value (Staphylococcus sp.; [5]) was 0.5 to 1 µg/mL. For the same molecule, the “MIC Coagulase Negative Staphylococcus (GC 4547)” value (Staphylococcus sp.) was 1 µg/mL (≈ 0.716 µM), the “MIC Coagulase Negative Staphylococcus (GC 4547)” value (Staphylococcus sp.; [5]) was 1 µg/mL (≈ 0.716 µM) and the “MIC Coagulase Negative Staphylococcus (GC 4548)” value (Staphylococcus sp.) was 0.5 to 1 µg/mL. The “MIC Coagulase Negative Staphylococcus (GC 4548)” value (Staphylococcus sp.; [5]) was 0.5 to 1 µg/mL, the “MIC Coagulase Negative Staphylococcus (GC 4549)” value (Staphylococcus sp.) was 0.5 to 1 µg/mL and the “MIC Coagulase Negative Staphylococcus (GC 4549)” value (Staphylococcus sp.; [5]) was 0.5 to 1 µg/mL. The “MIC Coagulase Negative Staphylococcus (GC 4551)” value (Staphylococcus sp.) was 1 to 2 µg/mL, the “MIC Coagulase Negative Staphylococcus (GC 4551)” value (Staphylococcus sp.; [5]) was 1 to 2 µg/mL and the “MIC Coagulase Negative Staphylococcus (GC 6257)” value (Staphylococcus sp.) was 0.5 µg/mL (≈ 0.358 µM). The “MIC Coagulase Negative Staphylococcus (GC 6257)” value (Staphylococcus sp.; [5]) was 0.5 µg/mL (≈ 0.358 µM), the “MIC Enterococccus avium (GC 4558)” value (Enterococcus sp.) was 2 to 4 µg/mL and the “MIC Enterococccus faecalis (ATCC 29212)” value (Enterococcus sp.) was 2 to 4 µg/mL. For the same molecule, the “MIC Enterococccus faecalis (GC 2691)” value (Enterococcus sp.) was 2 to 4 µg/mL, the “MIC Enterococccus faecalis (GC 3059)” value (Enterococcus sp.) was 2 to 4 µg/mL and the “MIC Enterococccus faecalis (GC 4552)” value (Enterococcus sp.) was 2 to 4 µg/mL. The “MIC Enterococccus faecalis (GC 4553)” value (Enterococcus sp.) was 2 to 4 µg/mL, the “MIC Enterococccus faecalis (GC 4554)” value (Enterococcus sp.) was 2 to 4 µg/mL and the “MIC Enterococccus faecalis (GC 6189)” value (Enterococcus sp.) was 2 to 4 µg/mL. The “MIC Enterococccus faecium (GC 2243)” value (Enterococcus sp.) was 2 to 4 µg/mL, the “MIC Enterococccus faecium (GC 4556)” value (Enterococcus sp.) was 2 to 4 µg/mL and the “MIC Enterococccus faecium (GC 4557)” value (Enterococcus sp.) was 1 to 2 µg/mL. The “MIC Enterococcus faecalis (GC 2242)” value (Enterococcus sp.) was 2 to 4 µg/mL.
For `CCCCCCC(=O)OC1C(O)C(CO)OC(OC2C(CO)OC(Oc3ccc(CC4NC(=O)C(C(C)c5ccccc5)NC(=O)CNC(=O)C(CO)NC(=O)C(C(O)C5CNC(=N)N5C5OC(CO)C(O)C(O)C5O)NC(=O)C(C(O)C5CNC(=N)N5)NC4=O)cc3)C(O)C2O)C1O` (stereo not drawn) [Example 274b, Cyclo[glycyl-β-methylphenylalanyl-O-[4-O-(3-O-heptanoyl-hexopyranosyl)-hexopyranosyl]tyrosyl-3-(2-iminoimidazolidin-4-yl)seryl-3-(3-hexopyranosyl-2-iminoimidazolidin-4-yl)serylseryl]], the “Zone of Inhibition vs. S. aureus” value (Staphylococcus aureus) was 10 mm.
With `CCC(C)CC(=O)OC1C(CO)OC(OC2C(CO)OC(Oc3ccc(CC4NC(=O)C(C(C)c5ccccc5)NC(=O)CNC(=O)C(CO)NC(=O)C(C(O)C5CNC(=N)N5C5OC(CO)C(O)C(O)C5O)NC(=O)C(C(O)C5CNC(=N)N5)NC4=O)cc3)C(O)C2O)C(O)C1O` (stereo not drawn) [Example 271c, Cyclo[glycyl-β-methylphenylalanyl-O-[4-O-[4-O-(3-methylpentanoyl)hexopyranosyl]-hexopyranosyl]tyrosyl-3-(2-iminoimidazolidin-4-yl)seryl-3-(3-hexopyranosyl-2-iminoimidazolidin-4-yl)serylseryl]] the “Zone of Inhibition vs. S. aureus” value (Staphylococcus aureus) was 12 mm.
With `CCCCCC(=O)OC1C(O)C(CO)OC(OC2C(CO)OC(Oc3ccc(CC4NC(=O)C(C(C)c5ccccc5)NC(=O)CNC(=O)C(CO)NC(=O)C(C(O)C5CNC(=N)N5C5OC(CO)C(O)C(O)C5O)NC(=O)C(C(O)C5CNC(=N)N5)NC4=O)cc3)C(O)C2O)C1O` (stereo not shown) [Example 273b] the “Zone of Inhibition vs. S. aureus” value (Staphylococcus aureus) was 9 mm and 8 mm.
